From PMC8335727 (Inorganic Chemistry, 2021)
Where “and” joins values, the source holds several entries; their conditions need not be identical. Identical values can stand only once.

Key:
[1] = tested on: Colo320 cells; assay: Annexin-V-FITC/PI apoptosis induction assay (flow cytometry); type: cell-based, human; conditions: for Cell death % Q1 / Early apoptosis % Q3 / Late apoptosis and necrosis % Q2: 3 h induction
Experimental: To gain further insights into the cytotoxic behavior of the compounds, apoptosis induction by lead compounds HL^1 and [Cu(L^2)Cl] was investigated by a flow cytometry analysis of multidrug-resistant Colo320 cells stained with Annexin-V-FITC and propidium iodide (PI).
Colo320 cells were treated at the indicated concentration of the drugs. The dual parametric dot plots that combine the Annexin-V (FL1) and PI (FL3) fluorescence show the viable cell population in the lower-left quadrant Annexin-V–/PI– (Q4), the early apoptotic cells in the lower-right quadrant Annexin-V+/PI– (Q3), and the late apoptotic and necrotic cells in the upper-right quadrant Annexin-V+/PI+ (Q2). […]
2.5.3. Mechanisms of cell death: assay for apoptosis induction
The assay was carried out for selected compounds using an Annexin V-FITC Apoptosis Detection
Kit (Cat. No. APOAF-50TST) from Sigma according to the manufacturer's instructions. The
concentration of the Colo320 cell suspension was adjusted to approximately 0.5 × 10^6 cells per
mL in RPMI medium and the cell suspension was distributed in 1 mL aliquots into a 24-well plate,
and then incubated overnight at 37 °C and 5% CO2. On the following day, the medium was
removed and replaced by 1 mL RPMI medium containing the compounds except the control
samples. Colo320 cells were incubated in the presence of the compounds at 4 and 8 μM (HL1), or
0.25 and 0.50 μM (Cu(HL2)Cl2) in the 24-well plate at 37 °C for 3 h, and 12H-
controls. After the incubation period the samples were washed with PBS and fresh RPMI medium
was added to the samples. The cells were incubated overnight at 37 °C and 5% CO2. The next day,
200 μL 0.25% Trypsin (Trypsin-Versen) was added to the samples until cells appeared detached
followed by the addition of 400 μL of RPMI medium supplemented with 10% bovine serum. The
cells were collected in Eppendorf tubes and centrifuged at 2000 g for 2 min. The harvested cells
were resuspended in fresh serum free RPMI medium culture medium. After this step, the apoptosis
assay was carried out according to the instructions of the manufacturer. The fluorescence was
analyzed immediately using a ParTec CyFlow flow cytometer (Partec GmbH, Münster, Germany). […]

[2] = tested on: SW480 cells; assay: Cell cycle distribution by flow cytometry; type: cell-based, human; conditions: 24 h
From the text: […] TEXT PRINTED IN THE PICTURE: (A) no label printed: S: 27.7% | (B) no label printed: S: 33.8% | (C) no label printed: S: 44.0% | (D) no label printed: S: 46.5% DOUBTS OF THE COPYIST ABOUT THIS PICTURE: No substance labels are printed in the picture, only the panel letters A-D. / The phase label "S" is printed only in panel A. Applying it to the percentages in panels B, C and D is assumed from where the marker line sits.

## Cc1cc(NC(=S)NN=Cc2ccccn2)cc(C)c1O [HL^1, 2-Formylpyridine 4-(4-hydroxy-3,5-dimethylphenyl)thiosemicarbazone]
[1]; 4 µM
  Cell death % Q1: 2.79%
  Early apoptosis % Q3: 6.19%
  Late apoptosis and necrosis % Q2: 12.4%
[1]; 8 µM
  Cell death % Q1: 1.57%
  Early apoptosis % Q3: 7.65%
  Late apoptosis and necrosis % Q2: 7.0%
[1]; Homo sapiens, COLO 320, 4 μM, read-out: viable cell population Q4
  viability at 4 µM: 78.6%
[2]; 1 µM
  G1 phase cells: 48.5%
  G2 phase cells: 19.4%
  S phase cells: 32.0%
[2]; 10 µM
  G0/G1 phase cells: 49.2% and 49.2 ± 1.6%
  G2/M phase cells: 12.3% and 12.3 ± 4.4%
  S phase cells: 37.1 ± 4.7%
